Experimental data from the supplement of paper PMC10307832.

How the values were obtained:
Test in all cases: relative viability (nuclei count vs DMSO), 5 days (fraction); higher = more cells survive
[1] = compound: C1=CC2=C(C=C(C(=C2N=C1)O)N=NC3=CC4=C(C=C3)C=C(C=C4)S(=O)(=O)O)S(=O)(=O)O + NC(=O)Nc1cc(-c2cccc(F)c2)sc1C(=O)N[C@H]1CCCNC1 [AZD7762] (partner 0.2 µM)
Method in brief: (§1)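 Lung cancer cell lines in 1536-well plates were dosed by pin tool the day after seeding, either with one drug alone or with a fixed anchor-drug dose plus five library-drug doses (not always all listed) in √10 steps. After 5 days, cells were fixed and their nuclei stained in one step (final 0.05% Triton X-100, 1% formaldehyde, 1 ug/ml Hoechst), then counted on 4× images. Relative viability is the nuclei count in treated wells divided by that in vehicle wells. Values are medians of duplicate plates.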

[2] = compound: C1=CC2=C(C=C(C(=C2N=C1)O)N=NC3=CC4=C(C=C3)C=C(C=C4)S(=O)(=O)O)S(=O)(=O)O + CCNC(=O)c1noc(-c2cc(C(C)C)c(O)cc2O)c1-c1ccc(CN2CCOCC2)cc1 [Luminespib] (partner 0.01 µM)
Method in brief: as §1

[3] = compound: O=C(NC1CCNCC1)c1n[nH]cc1NC(=O)c1c(Cl)cccc1Cl [AT-7519] + CC(=O)c1c(C)c2cnc(Nc3ccc(N4CCNCC4)cn3)nc2n(C2CCCC2)c1=O [Palbociclib] (partner 0.5 µM)
Method in brief: as §1

[4] = compound: C1=CC2=C(C=C(C(=C2N=C1)O)N=NC3=CC4=C(C=C3)C=C(C=C4)S(=O)(=O)O)S(=O)(=O)O + CC(=O)c1c(C)c2cnc(Nc3ccc(N4CCNCC4)cn3)nc2n(C2CCCC2)c1=O [Palbociclib] (partner 0.5 µM)
Method in brief: as §1

| Cell Line | relative viability ([1]; first compound 0.08 µM) | relative viability ([1]; first compound 0.253 µM) | relative viability ([1]; first compound 0.8 µM) | relative viability ([1]; first compound 2.53 µM) | relative viability ([1]; first compound 8 µM) | relative viability ([2]; first compound 0.08 µM) | relative viability ([2]; first compound 0.253 µM) | relative viability ([2]; first compound 0.8 µM) | relative viability ([2]; first compound 2.53 µM) | relative viability ([2]; first compound 8 µM) | relative viability ([3]; first compound 0.01 µM) | relative viability ([3]; first compound 0.03162 µM) | relative viability ([3]; first compound 0.3162 µM) | relative viability ([3]; first compound 1 µM) | relative viability ([4]; first compound 0.08 µM) | relative viability ([4]; first compound 0.253 µM) | relative viability ([4]; first compound 0.8 µM) | relative viability ([4]; first compound 2.53 µM) | relative viability ([4]; first compound 8 µM) |
| --- | --- | --- | --- | --- | --- | --- | --- | --- | --- | --- | --- | --- | --- | --- | --- | --- | --- | --- | --- |
| LCLC-97TM1 | 0.354 | 0.22 | 0.292 | 0.214 | 0.314 | 0.963 | 0.678 | 0.714 | 0.805 | 0.801 | 0.228 | 0.234 | 0.215 | 0.135 | 0.236 | 0.258 | 0.189 | 0.222 | 0.257 |
| LCLC-103H | 0.85 | 0.801 | 0.758 | 0.774 | 0.891 | 1.09 | 0.902 | 1.09 | 0.96 | 0.957 | 0.513 | 0.42 | 0.432 | 0.418 | 0.457 | 0.465 | 0.484 | 0.487 | 0.433 |
| PC-3 [JPC-3] | 0.899 | 0.808 | 0.817 | 0.778 | 0.71 | 0.576 | 0.708 | 0.663 | 0.729 | 0.761 | 0.591 | 0.548 | 0.508 | 0.575 | 0.572 | 0.566 | 0.528 | 0.577 | 0.565 |
| BEN | 0.694 | 0.749 | 0.729 | 0.77 | 0.557 | 0.295 | 0.353 | 0.424 | 0.627 | 0.232 | 0.5 | 0.515 | 0.455 | 0.461 | 0.499 | 0.426 | 0.489 | 0.458 | 0.448 |
| NCI-H1666 | 0.868 | 0.798 | 0.787 | 0.802 | 0.771 | 1.09 | 0.912 | 1.07 | 0.978 | 0.596 | 0.642 | 0.658 | 0.674 | 0.655 | 0.667 | 0.704 | 0.626 | 0.668 | 0.645 |
| LC-2-ad | 0.894 | 0.802 | 0.829 | 0.847 | 0.796 | 0.989 | 1.04 | 1.05 | 1.1 | 0.834 | 0.497 | 0.466 | 0.484 | 0.372 | 0.573 | 0.493 | 0.499 | 0.493 | 0.528 |
| ChaGo-K-1 | 0.933 | 0.82 | 0.845 | 0.892 | 0.721 | 0.558 | 0.573 | 0.587 | 0.595 | 0.553 | 0.952 | 0.938 | 0.922 | 0.869 | 0.974 | 0.948 | 0.931 | 0.903 | 0.853 |
| NCI-H1975 | 0.715 | 0.69 | 0.671 | 0.748 | 0.702 | 0.194 | 0.2 | 0.206 | 0.264 | 0.252 | 0.51 | 0.599 | 0.362 | 0.176 | 0.753 | 0.592 | 0.606 | 0.639 | 0.666 |
